{
  "source": "PubChem BioAssay AID248",
  "about": "(DTP/NCI, 2004)",
  "system": "L1210 leukemia ip in BDF1 mice, survival T/C",
  "test": "NCI In Vivo Anticancer Drug Screen. Data for tumor model L1210 Leukemia (intraperitoneal) in B6D2F1 (BDF1) mice",
  "conditions": "endpoint: mean survival time, higher = longer survival",
  "method_in_brief": "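Read-out is survival time, reported as the treated-group measurement over the vehicle-control measurement.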",
  "key": {"[1]": {"conditions": "dose: 100.0 mg/kg/injection, schedule: Q04DX003 (ip), vehicle: saline"}, "[2]": {"conditions": "dose: 200.0 mg/kg/injection, schedule: Q04DX003 (ip), vehicle: saline"}, "[3]": {"conditions": "dose: 400.0 mg/kg/injection, schedule: Q04DX003 (ip), vehicle: saline"}, "[4]": {"conditions": "dose: 100.0 mg/kg/injection, schedule: Q01DX001 (ip), vehicle: saline"}, "[5]": {"conditions": "dose: 100.0 mg/kg/injection, schedule: Q01DX009 (ip), vehicle: saline"}, "[6]": {"conditions": "dose: 100.0 mg/kg/injection, schedule: Q04DX002 (ip), vehicle: saline"}, "[7]": {"conditions": "dose: 200.0 mg/kg/injection, schedule: Q01DX001 (ip), vehicle: saline"}, "[8]": {"conditions": "dose: 200.0 mg/kg/injection, schedule: Q01DX009 (ip), vehicle: saline"}, "[9]": {"conditions": "dose: 200.0 mg/kg/injection, schedule: Q04DX002 (ip), vehicle: saline"}, "[10]": {"conditions": "dose: 400.0 mg/kg/injection, schedule: Q01DX001 (ip), vehicle: saline"}},
  "note": "Several values for one entry are separate records, joined by “and”; a condition that tells them apart may be missing. Identical values can stand only once. Toxic doses and inconclusive results are not listed.",
  "data": [
    {"smiles": "CC1=CC(C)(C)SC(=S)N1", "values": [
      {"measurement": "T/C", "setting": "dose: 75.0 mg/kg/injection, schedule: Q01DX009 (ip), vehicle: Klucel (hydroxypropylcellulose) (HPC)", "result": "98 % of control"},
      {"measurement": "T/C", "setting": "[1]", "result": "111 % of control"},
      {"measurement": "T/C", "setting": "dose: 150.0 mg/kg/injection, schedule: Q01DX009 (ip), vehicle: Klucel (hydroxypropylcellulose) (HPC)", "result": "104 % of control"},
      {"measurement": "T/C", "setting": "[2]", "result": "104 % of control"},
      {"measurement": "T/C", "setting": "dose: 300.0 mg/kg/injection, schedule: Q01DX009 (ip), vehicle: Klucel (hydroxypropylcellulose) (HPC)", "result": "108 % of control"},
      {"measurement": "T/C", "setting": "[3]", "result": "96 % of control"}
    ]},
    {"smiles": "CC(=O)NC(C)C(=O)O", "note": "(centres undefined)", "values": [
      {"measurement": "T/C", "setting": "[4]", "result": "90 % of control and 92 % of control"},
      {"measurement": "T/C", "setting": "[5]", "result": "100 % of control and 111 % of control and 103 % of control"},
      {"measurement": "T/C", "setting": "[6]", "result": "96 % of control and 111 % of control and 92 % of control"},
      {"measurement": "T/C", "setting": "[1]", "result": "89 % of control and 103 % of control"},
      {"measurement": "T/C", "setting": "[7]", "result": "106 % of control and 93 % of control"},
      {"measurement": "T/C", "setting": "[8]", "result": "93 % of control and 92 % of control and 97 % of control"},
      {"measurement": "T/C", "setting": "[9]", "result": "105 % of control and 93 % of control and 94 % of control"},
      {"measurement": "T/C", "setting": "[2]", "result": "90 % of control and 98 % of control"},
      {"measurement": "T/C", "setting": "[10]", "result": "94 % of control and 93 % of control"},
      {"measurement": "T/C", "setting": "dose: 400.0 mg/kg/injection, schedule: Q01DX009 (ip), vehicle: saline", "result": "90 % of control and 92 % of control and 100 % of control"},
      {"measurement": "T/C", "setting": "dose: 400.0 mg/kg/injection, schedule: Q04DX002 (ip), vehicle: saline", "result": "96 % of control and 94 % of control and 101 % of control"},
      {"measurement": "T/C", "setting": "[3]", "result": "94 % of control and 103 % of control"}
    ]},
    {"smiles": "N#CCN1CCOCC1", "values": [
      {"measurement": "T/C", "setting": "dose: 25.0 mg/kg/injection, schedule: Q01DX009 (ip), vehicle: saline", "result": "122 % of control"},
      {"measurement": "T/C", "setting": "dose: 50.0 mg/kg/injection, schedule: Q01DX009 (ip), vehicle: saline", "result": "101 % of control"},
      {"measurement": "T/C", "setting": "[5]", "result": "97 % of control and 98 % of control"},
      {"measurement": "T/C", "setting": "[1]", "result": "103 % of control"},
      {"measurement": "T/C", "setting": "[8]", "result": "110 % of control"},
      {"measurement": "T/C", "setting": "[2]", "result": "97 % of control"}
    ]},
    {"smiles": "Nc1ccn(C2OC(COC(=O)C34CC5CC(CC(C5)C3)C4)C(O)C2O)c(=O)n1", "note": "(centres undefined)", "values": [
      {"measurement": "T/C", "setting": "dose: 50.0 mg/kg/injection, schedule: Q01DX001 (ip), vehicle: other", "result": "156 % of control and 170 % of control"},
      {"measurement": "T/C", "setting": "dose: 100.0 mg/kg/injection, schedule: Q01DX001 (ip), vehicle: other", "result": "165 % of control and 248 % of control"},
      {"measurement": "T/C", "setting": "dose: 200.0 mg/kg/injection, schedule: Q01DX001 (ip), vehicle: other", "result": "213 % of control and 300 % of control"}
    ]},
    {"smiles": "NC(=O)c1ccccc1OCc1ccccc1", "values": [
      {"measurement": "T/C", "setting": "dose: 75.0 mg/kg/injection, schedule: Q04DX003 (ip), vehicle: Klucel (hydroxypropylcellulose) (HPC)", "result": "97 % of control"},
      {"measurement": "T/C", "setting": "dose: 150.0 mg/kg/injection, schedule: Q04DX003 (ip), vehicle: Klucel (hydroxypropylcellulose) (HPC)", "result": "99 % of control"},
      {"measurement": "T/C", "setting": "dose: 300.0 mg/kg/injection, schedule: Q04DX003 (ip), vehicle: Klucel (hydroxypropylcellulose) (HPC)", "result": "91 % of control"}
    ]},
    {"smiles": "CCNS(=O)(=O)c1ccc(C(N)=S)cc1", "values": [
      {"measurement": "T/C", "setting": "dose: 100.0 mg/kg/injection, schedule: Q01DX001 (ip), vehicle: saline with Tween-80", "result": "100 % of control"},
      {"measurement": "T/C", "setting": "dose: 200.0 mg/kg/injection, schedule: Q01DX001 (ip), vehicle: saline with Tween-80", "result": "97 % of control"},
      {"measurement": "T/C", "setting": "dose: 400.0 mg/kg/injection, schedule: Q01DX001 (ip), vehicle: saline with Tween-80", "result": "98 % of control"}
    ]},
    {"smiles": "Cc1ccc(S(=O)(=O)NCCC(Cl)(Cl)Cl)cc1", "values": [
      {"measurement": "T/C", "setting": "dose: 100.0 mg/kg/injection, schedule: Q04DX003 (ip), vehicle: Klucel (hydroxypropylcellulose) (HPC)", "result": "104 % of control"},
      {"measurement": "T/C", "setting": "dose: 200.0 mg/kg/injection, schedule: Q04DX003 (ip), vehicle: Klucel (hydroxypropylcellulose) (HPC)", "result": "101 % of control"},
      {"measurement": "T/C", "setting": "dose: 400.0 mg/kg/injection, schedule: Q04DX003 (ip), vehicle: Klucel (hydroxypropylcellulose) (HPC)", "result": "98 % of control"}
    ]},
    {"smiles": "CNCCC(=O)C1CCC(OC)CC1", "note": "(centres undefined)", "values": [
      {"measurement": "T/C", "setting": "[6]", "result": "92 % of control"},
      {"measurement": "T/C", "setting": "[9]", "result": "110 % of control"}
    ]},
    {"smiles": "Cc1ccc(S(=O)(=O)NNC(=O)c2ccccc2NCCO)cc1", "values": [
      {"measurement": "T/C", "setting": "[4]", "result": "101 % of control"},
      {"measurement": "T/C", "setting": "[7]", "result": "101 % of control"},
      {"measurement": "T/C", "setting": "[10]", "result": "103 % of control"}
    ]},
    {"smiles": "COc1ccc(NC(=S)Nc2ccc(Cc3ccc(NC(=S)Nc4ccc(OC)cc4)cc3)cc2)cc1", "values": [
      {"measurement": "T/C", "setting": "dose: 100.0 mg/kg/injection, schedule: Q04DX002 (ip), vehicle: saline with Tween-80", "result": "101 % of control"},
      {"measurement": "T/C", "setting": "dose: 200.0 mg/kg/injection, schedule: Q04DX002 (ip), vehicle: saline with Tween-80", "result": "95 % of control"},
      {"measurement": "T/C", "setting": "dose: 400.0 mg/kg/injection, schedule: Q04DX002 (ip), vehicle: saline with Tween-80", "result": "88 % of control"}
    ]}
  ]
}
